The source of these data is patent US12491248B2, “Method for generating immunoregulatory cells in a blood-derived sample” (Therakos Development Limited, priority 2019, dated 2025).

Series [1] is described as follows: Adverse events of ipilimumab and nivolumab in the metastatic melanoma patient. In kind it is in vivo, human. The settings on record: after two doses of ipilimumab and nivolumab. As to the method: (§1) A patient was treated with ipilimumab and nivolumab for metastatic melanoma. […] Colitis was diagnosed based on macroscopic mucosal ulcerations and intraepithelial apoptosis and crypt loss identified in the biopsy (FIG. 1a,b). While dermatitis, thyroiditis and hepatitis resolved after stopping ipilimumab/nivolumab and corticosteroid treatment, the patient experienced three colitis episodes within the next 20 weeks (CTC-AE II-III°). These were treated with corticosteroids (in total 23 weeks prior to ECP), infliximab (2 single doses 18 and 15 weeks prior to ECP) and cyclosporine (14 weeks prior to ECP, FIG. 1a and Table 1).

A further series has as its system B16 melanoma cells. Put plainly: Survival of melanoma-bearing mice treated with anti-PD1. Format: in vivo. As to conditions: combined with anti-PD1, compared to anti-PD1 only. As to the method:
FIG. 7: • (a) Treatment schedule: Mice were injected iv with B16 melanoma cells and afterwards treated with anti-PD1, prednisolone or ECP as indicated. • (b) Survival of mice injected iv with B16 melanoma cells and afterwards treated with anti-PD1, prednisolone or ECP.
To understand if the immunomodulatory effect of ECP was connected to a loss of anti-tumor activity we next treated melanoma bearing mice with anti-PD1 alone or in combination with the glucocorticoid prednisolone or ECP (FIG. 7A). We observed that prednisolone reduced the survival of melanoma-bearing mice compared to the group treated with anti-PD1 only (FIG. 7B).

For series [2], the system named is immune checkpoint inhibitor-related colitis. Put plainly: Immunosuppressive drug treatment of the patient's colitis episodes before ECP. In kind it is in vivo, human. As to the method:
as §1
The patient had their first episode of colitis 20 weeks prior to the start of ECP. At that time point they had been treated for 3 weeks with steroids for their previous immune checkpoint inhibitor-related hepatitis, thyroiditis and dermatitis. The colitis occurred during tapering of the steroids. Therefore, the steroid dose was increased and due to an insufficient response, infliximab 5 mg/kg BW was administered once. […] Upon steroid tapering, the patient experienced their second episode of colitis, 16 weeks prior to begin of ECP. They were treated with an increased dose of methylprednisolone and a second dose of infliximab. The diarrhea was refractory to this therapy and consequently cyclosporine A was added. […] Here, ECP treatment was initiated. […]

Consider “ipilimumab: antagonistic antibody directed against CTLA4”, for which the “immune-related adverse events developed” value in series [1] was “dermatitis, thyroiditis, hepatitis and colitis”. In the case of `C[C@]12C=CC(=O)C=C1CC[C@@H]1[C@@H]2[C@@H](O)C[C@@]2(C)[C@H]1CC[C@]2(O)C(=O)CO` [prednisolone], in the series on B16 melanoma cells, the “survival of melanoma-bearing mice” value is “reduced”. Consider “nivolumab: antagonistic anti-PD-1 antibody”, for which, in series [1], the “immune-related adverse events developed” value was “dermatitis, thyroiditis, hepatitis and colitis”.

With infliximab: anti-TNF antibody, the “diarrhea, second episode” value in series [2] (increased dose of methylprednisolone and a second dose of infliximab) is “refractory”. In addition, the “colitis symptoms, first episode” value in series [2] (infliximab 5 mg/kg BW once, added to increased steroid dose) was “symptoms resolved”.
